In experiment [1] the test system is light-evoked excitatory postsynaptic currents (EPSCs) in lamina I-II outer neurons. Kind of experiment: Spinal cord slice whole-cell recording of light-evoked EPSCs from ChR2-expressing TRPV1 nociceptors. In kind it is cell-based, mouse. The text has this: FIG. 4. Opioid-induced spinal long-term potentiation (LTP) is initiated by presynaptic MOR in nociceptors. (a,b) MOR cKO mice crossed with a mouse line expressing Channel-rhodopsin2 (ChR2-eYFP) in a Cre-dependent manner produces expression of ChR2-eYFP in Trpv1^Cre+DRG nociceptor cell bodies and central terminals in the spinal cord dorsal horn. Scale bars=50 m, throughout. (c,d) Blue light-evoked (473 nm, 1.0 mW/cm^2, 0.2 ms, 0.05 Hz) excitatory postsynaptic currents (EPSCs) recorded in laminae I and II outer spinal neurons in slices from MOR cKO and littermate controls. Numbered inset traces correspond to individual EPSCs before, during, and after wash-out of bath applied DAMGO (500 nM; 5 min duration). Scale bar=100 pA, 10 ms. (c) DAMGO-induced depression of EPSC amplitude and rebound LTP after washout (Control+LTP; n=8/15 neurons) in control slices. […] Error bars are mean±SEM.
Adult mice (6-8 weeks old) were anesthetized with isoflurane, decapitated, and the vertebral column was rapidly removed and placed in oxygenated ice-cold dissection solution (in mM: 95 NaCl, 2.5 KCl, 1.25 NaH2PO4, 26 NaHCO3, 50 sucrose, 25 glucose, 6 MgCl2, 1.5 CaCl2, and 1 kynurenic acid, pH 7.4, 320 mOsm). The lumbar spinal cord was isolated, embedded in a 3% agarose block, and transverse slices (400 Lm thick) were made using a vibrating microtome (Leica V T 1200S). Slices were incubated in oxygenated recovery solution (in mM: 125 NaCl, 2.5 KCl, 1.25 NaH2PO4, 26 NaHCO3, 25 glucose, 6 MgCl2, and 1.5 CaCl2, pH 7.4, 320 mOsm) at 35° C. for 1 hour before recording. Patch-clamp recording in whole-cell configuration was performed at 32° C. on lamina I or lamina II outer zone neurons visualized with an Olympus microscope (BX51WI age-MTI). Slices were perfused at ˜2 ml/min with recording solution (in mM: 125 NaCl, 2.5 KCl, 1.25 NaH2PO4, 26 NaHCO3, 25 glucose, 1 MgCl2, 2 CaCl2, pH 7.4, 320 mOsm). Recordings were performed in voltage-clamp mode at a holding potential of −70 mV. Thick-walled borosilicate pipettes, having a resistance of 3-6 MOhm, were filled with internal solution (in mM: 120 potassium gluconate, 20 KCl, 2 MgCl2, 5 MgATP, 0.5 NaGTP, 20 HEPES, 0.5 EGTA, PH 7.25 with KOH, ˜300 mOsm). All data were acquired using a Multiclamp 700B amplifier and pClamp10 software (Molecular Devices). Sampling rate was 10 kHz and data were filtered at 2 kHz. Analysis of eEPSC peak amplitudes was done with Clampfit software (pClamp10, Molecular Devices). Graphs and statistical analysis were generated with Igor Pro (Wave Metrics).
To isolate the TRPV1 nociceptor mediated EPSCs, we crossed the TRPV1-Cre mice with Ai32 mice (Rosa-CAG-LSL-ChR2(H134R)-EYFP-WPRE) (Bardoni et al., 2014) to limit the channelrhodopsin 2 expression specifically to TRPV1 primary afferents. […]

The subject of the next experiment is wild-type C57Bl/6J mice. Kind of experiment: Morphine and MNB combination in wild-type mice: nociceptive reflexes, affective-motivational behaviors, tolerance and OIH. The format is in vivo, mouse. How it is done: (a) Temporal raster plot of nociception-induced sensory-reflexive and affective-motivational behaviors in an inescapable noxious environment (enclosed 52.5° C. hotplate). […] MNB doses 0.0-1.0 mg/kg, n=10; MNB 10 mg/kg, n=7 for reflexive tests and n=5 for affective-motivational tests. Best-fit lines were generated following non-linear regression analysis based on the % MPE for each mouse. One-way ANOVA+Bonferroni (left panels of b,d,f-k). ★ P<0.05. Error bars are mean±SEM. Overlaid points are individual animal scores. PID=post-injury day.
(b) Visual depiction of reflexive paw flinching behavior. (c) Latencies to the first paw flinch. (d) Number of paw flinches (see FIG. 17). (e) Visual depiction of hindpaw guarding behavior. (f) Latency to the first onset of hindpaw guarding. (g) Total duration of time spent engaged in hindpaw guarding. (h) Visual depiction of hindpaw attending. (i) Latency to the first onset of hindpaw attending. (j) Total duration of time spent engaging in hindpaw attending. (k) Visual depiction of escape jumping behavior. (1) Latency to the first jump. […] (m) Number of escape jumps. […] Error bars are±SEM.
Repeated Measures 2-way ANOVA+Bonferonni. ★ P<0.05. Error bars are mean±SEM.
To evaluate mechanical reflexive hypersensitivity (Weibel et al., 2013), we used a logarithmically increasing set of 8 von Frey filaments (Stoelting), ranging in gram force from 0.007 to 6.0 g. These were applied perpendicular to the plantar hindpaw with sufficient force to cause a slight bending of the filament. A positive response was characterized as a rapid withdrawal of the paw away from the stimulus filament within 4 s. Using the up-down statistical method (Solway et al., 2011), the 50% withdrawal mechanical threshold scores were calculated for each mouse and then averaged across the experimental groups.
To evaluate affective-motivational responses to an acute, focal thermal stimulus (Madisen et al., 2012), we applied either a single, unilateral 50 μl drop of 55° C. water or acetone (evaporative cooling) to the left hindpaw, and the duration of attending behavior was collected for up to 30 seconds after the stimulation. Only one stimulation per thermal drop was applied on a given testing session, in order to prevent behavioral sensitization that can result from multiple noxious stimulations and then averaging those responses.
To evaluate affective-motivational responses to a sustained, inescapable noxious thermal stimulus, mice were placed on a 52.5° C. hot plate for 45 seconds. A high-speed camera (on the side, level with the hot plate floor) was used to capture the movement, speed, velocity, and detailed reflexive and affective-motivational behaviors of the mice, as described above.
As opposed to the standard hot-plate test, all behaviors such as reflexive paw flinching (rapid flicking of the limb), paw attending (directed licking of the limb), paw guarding (intentional lift protection of the limb), and escape jumping for the duration of the trial were scored. This allowed the analysis of the high-speed videos, blinded to plate temperature or treatment, for the total time spent engaging in affective-motivational behaviors and the number of nociceptive reflexives, as opposed to the traditional metric of merely determining the latency to the first reflexive response.

Another experiment deals with laxation responses. As to conditions: subcutaneous MNB 5, 12.5 or 20 mg; clinical; cited from earlier work.

Molecules are shown by their SMILES.

In the case of `C[C@@H](NC(=O)[C@@H](N)Cc1ccc(O)cc1)C(=O)NCC(=O)N(C)[C@@H](Cc1ccccc1)C(=O)NCCO` [DAMGO, [D-Ala^2, N-MePhe^4, Gly-ol^5]-enkephalin], the “EPSC amplitude during DAMGO” value in experiment [1] (MOR cKO slices, 9 out of 9 neurons, 500 nM) is 98±8.12 % of control. Moreover, the “EPSC amplitude after DAMGO-washout” value in experiment [1] (MOR cKO slices, 9 out of 9 neurons, after washout of 500 nM) is 96.2±11.9%. In addition, the “EPSC amplitude after washout (LTP)” value in experiment [1] (control slices, 8 out of 15 neurons, thirty minutes after washout of 500 nM) is listed as 142.2±6.1 % of control. Also, the “depression of light-evoked EPSCs” value in experiment [1] (control slices, all 15 recorded neurons, 500 nM bath application, at 5 min of application) came to 52±10.5 % inhibition.
Consider `C[N@+]1(CC2CC2)CC[C@]23c4c5ccc(O)c4O[C@H]2C(=O)CC[C@@]3(O)[C@H]1C5` [MNB, methylnaltrexone bromide], for which the “dose-response of MNB effect on morphine tolerance, latency to nociceptive reflexes (paw flinch)” value with wild-type C57Bl/6J mice (45 s 52.5° C. hot plate, morphine 10 mg/kg + MNB 0.1-10.0 mg/kg) is “bell-shaped dose-response curve”. For the same molecule, the “effect of MNB on morphine antinociceptive effects” value with wild-type C57Bl/6J mice (MNB 0.1-10.0 mg/kg combined with morphine) is reported as “did not alter morphine antinociceptive effects”. In addition, the “onset of morphine antinociceptive tolerance and OIH, 10-day treatment” value in the experiment with wild-type C57Bl/6J mice (MNB 1 or 10 mg/kg + morphine for 10 days, von Frey and 52.5° C. hotplate) was “prevents the onset of morphine antinociceptive tolerance and OIH”. In the experiment on wild-type C57Bl/6J mice (morphine 10 mg/kg + MNB 0.1-10.0 mg/kg once daily for 7 days), the “onset of tolerance and OIH” value is “dose-dependently prevents the onset of morphine antinociceptive tolerance and OIH”. Moreover, the “laxation responses, percentage of responders” value with laxation responses is “higher percentage of responders after 5 or 12.5 mg subcutaneous MNB compared to a 20 mg dose”.

The values are drawn from US20180214442A1, “METHODS FOR ATTENUATING OR PREVENTING MU(μ)-OPIOID RECEPTOR MEDIATED TOLERANCE AND OPIOID-INDUCED […]” (The Board of Trustees of the Leland Stanford Junior …, priority 2017, published 2018).
